Measurements: ChEMBL document CHEMBL4680211, “Synthesis and structure-activity relationship study of water-soluble carbazole sulfonamide derivatives as new anticancer agents” (Eur J Med Chem, 2020)

Columns and labels:
MCF7 = experiment: Antiproliferative activity against human MCF7 cells measured after 48 hrs by SRB assay; assay type: functional, cell-based; details: Homo sapiens, MCF7, 48 h
[1] = Acute toxicity in Kunming mouse assessed as survival at 50 mg/kg, iv measured for 7 days relative to control; assay type: organism-based; details: in vivo, time 7 day
[2] = Acute toxicity in iv dosed Kunming mouse measured for 7 days; assay type: organism-based; details: in vivo, time 7 day
[3] = Toxicity in human HepG2 cells xenografted BALB/c nude mouse assessed as change in tumor weight at 10 mg/kg, iv qod for 14 to 29 days (reference value: 4.52 g); assay type: organism-based; details: in vivo, time 14-29 day
[4] = Acute toxicity in Kunming mouse assessed as survival at 75 mg/kg, iv measured for 7 days relative to control; assay type: organism-based; details: in vivo, time 7 day
[5] = Acute toxicity in Kunming mouse assessed as survival at 25 mg/kg, iv measured for 7 days relative to control; assay type: organism-based; details: in vivo, time 7 day
HepG2 [6] = experiment: Antitumor activity against human HepG2 cells xenografted in BALB/c nude mouse assessed as tumor volume at 10 mg/kg, iv qod for 14 to 29 days measured on day 29 (reference value: 2,838.93 +/- 737.40); assay type: functional; details: time 14-29 day
HepG2 [7] = experiment: Antiproliferative activity against human HepG2 cells measured after 48 hrs by SRB assay; assay type: functional, cell-based; details: Homo sapiens, HepG2, 48 h
Bel-7402 = experiment: Antiproliferative activity against human Bel-7402 cells measured after 48 hrs by SRB assay; assay type: functional, cell-based; details: Homo sapiens, Bel-7402, 48 h
HepG2 [8] = experiment: Antitumor activity against human HepG2 cells xenografted in BALB/c nude mouse assessed as tumor volume at 10 mg/kg, iv qod for 14 to 29 days measured on day 1 (reference value: 154.04 +/- 3120); assay type: functional; details: time 14-29 day
[9] = Acute toxicity in Kunming mouse assessed as survival at 100 mg/kg, iv measured for 7 days relative to control; assay type: organism-based; details: in vivo, time 7 day
HepG2 [10] = experiment: Antitumor activity against human HepG2 cells xenografted in BALB/c nude mouse assessed as tumor growth inhibition at 10 mg/kg, iv qod for 14 to 29 days relative to control; assay type: functional; details: time 14-29 day, read-out: TGI
[11] = Aqueous solubility of compound in water at pH 7.4 incubated at 20 degC by HPLC-UV analysis; assay type: physicochemical
MDA-MB-231 = experiment: Antitumor activity against human MDA-MB-231 cells xenografted in BALB/c nude mouse assessed as reduction in tumor burden at 60 mg/kg, ip qod for 14 to 29 days relative to control; assay type: functional; design: scale not given: the % may be the effect or the level left; details: time 14-29 day
[12] = Toxicity in human MDA-MB-231 cells xenografted BALB/c nude mouse assessed as effect on body weight at 60 mg/kg, ip qod for 14 to 29 days measured every two days during compound dosing; assay type: organism-based; details: in vivo, time 14-29 day
HepG2 [13] = experiment: Antitumor activity against human HepG2 cells xenografted in BALB/c nude mouse assessed as tumor growth inhibition at 50 mg/kg, iv qod for 14 to 29 days relative to control; assay type: functional; details: time 14-29 day, read-out: TGI
HepG2 [14] = experiment: Antitumor activity against human HepG2 cells xenografted in iv dosed BALB/c nude mouse assessed as tumor growth inhibition administered every other day for 14 to 29 days; assay type: functional, organism-based; details: time 14-29 day

| IC50 (MCF7) [nM] | IC50 (HepG2 [7]) [nM] | IC50 (Bel-7402) [nM] | solubility [11] [mg/mL] | SMILES | other results |
| --- | --- | --- | --- | --- | --- |
| 6630 | 4750 | 4380 |  | COc1ccc(N(CCN)S(=O)(=O)c2ccc3c(c2)c2ccccc2n3C)c(OC)n1 |  |
| 4530 | 1390 | 4640 |  | COc1ccc(N(CCCn2ccnc2)S(=O)(=O)c2ccc3c(c2)c2ccccc2n3C)c(OC)n1 |  |
| 4280 | 1970 | 3560 |  | COc1ccc(N(CC(N)=O)S(=O)(=O)c2ccc3c(c2)c2ccccc2n3C)c(OC)n1 |  |
|  |  |  | 17.6 | COc1ccc(N(C(=O)CCN2CCN(C)CC2)S(=O)(=O)c2ccc3c(c2)c2ccccc2n3C)c(OC)n1.Cl |  |
| 1160 | 350 | 730 |  | COc1ccc(N(C(=O)CCN2CCCCC2)S(=O)(=O)c2ccc3c(c2)c2ccccc2n3C)c(OC)n1 | Activity (MDA-MB-231): 40.1%; Activity [12]: Non-Toxic |
|  |  |  | 18.6 | COc1ccc(N(C(=O)CCN2CCCCC2)S(=O)(=O)c2ccc3c(c2)c2ccccc2n3C)c(OC)n1.Cl |  |
|  |  |  | 20.6 | COc1ccc(N(CCCN2CCN(C)CC2)S(=O)(=O)c2ccc3c(c2)c2ccccc2n3C)c(OC)n1.Cl |  |
| 680 | 95 |  | < 0.001 | COc1ccc(NS(=O)(=O)c2ccc3c(c2)c2ccccc2n3C)c(OC)n1 |  |
|  |  |  | 0.44 | COc1ccc(N(CCN2CCOCC2)S(=O)(=O)c2ccc3c(c2)c2ccccc2n3C)c(OC)n1.Cl |  |
|  |  |  | > 30 | COc1ccc(N(CCNC(=O)CN)S(=O)(=O)c2ccc3c(c2)c2ccccc2n3C)c(OC)n1.Cl.Cl |  |
| 1600 | 1260 | 2170 |  | COc1ccc(N(CCNC(=O)CN)S(=O)(=O)c2ccc3c(c2)c2ccccc2n3C)c(OC)n1 |  |
|  |  |  | 0.6 | COc1ccc(N(CCN2CCCC2)S(=O)(=O)c2ccc3c(c2)c2ccccc2n3C)c(OC)n1.Cl |  |
|  |  |  | 0.15 | COc1ccc(N(CCO)S(=O)(=O)c2ccc3c(c2)c2ccccc2n3C)c(OC)n1.Cl |  |
|  |  |  | 0.24 | COc1ccc(N(CCN)S(=O)(=O)c2ccc3c(c2)c2ccccc2n3C)c(OC)n1.Cl |  |
| 5820 | 2050 | 4990 |  | COc1ccc(N(CCN2CCCCC2)S(=O)(=O)c2ccc3c(c2)c2ccccc2n3C)c(OC)n1 |  |
|  |  |  |  | COc1ccc(N(CCN2CCN(C)CC2)S(=O)(=O)c2ccc3c(c2)c2ccccc2n3C)c(OC)n1 | TGI (HepG2 [14]): Dose-dependent effect |
| 21300 | 3590 | 6210 |  | COc1ccc(N(CCCN2CCC3(CCN(C)CC3)C2)S(=O)(=O)c2ccc3c(c2)c2ccccc2n3C)c(OC)n1 |  |
|  |  |  | > 30 | COc1ccc(N(CCCN2CCC3(CCN(C)CC3)C2)S(=O)(=O)c2ccc3c(c2)c2ccccc2n3C)c(OC)n1.Cl |  |
|  |  |  | > 30 | COc1ccc(N(CCN2CCC3(CCN(C)CC3)C2)S(=O)(=O)c2ccc3c(c2)c2ccccc2n3C)c(OC)n1.Cl |  |
|  |  |  | 18.4 | COc1ccc(N(CCCn2ccnc2)S(=O)(=O)c2ccc3c(c2)c2ccccc2n3C)c(OC)n1.Cl |  |

| SMILES | IC50 (MCF7) [nM] | IC50 (HepG2 [7]) [nM] | IC50 (Bel-7402) [nM] | solubility [11] [mg/mL] | other results |
| --- | --- | --- | --- | --- | --- |
| COc1ccc(N(CCN(C)C)S(=O)(=O)c2ccc3c(c2)c2ccccc2n3C)c(OC)n1 | 5330 | 1460 | 5320 |  | survival at 168 h [1]: 83.3%; LD50 at 168 h [2]: 71.9 mg/kg; Activity [3]: 0.87 g; survival at 168 h [4]: 66.7%; survival at 168 h [5]: 100%; Activity (HepG2 [6]): 1322.82 mm3; Activity (HepG2 [8]): 90.79 mm3; survival at 168 h [9]: 0%; inhibition in vivo at 10 mg/kg (HepG2 [10]): 52.8% |
| COc1ccc(NS(=O)(=O)c2ccc3c(c2)c2ccc(OP(=O)([O-])[O-])cc2n3C)c(OC)n1.Cl.[Na+].[Na+] |  |  |  | > 30 |  |
| COc1ccc(N(CCOP(=O)(O)O)S(=O)(=O)c2ccc3c(c2)c2ccccc2n3C)c(OC)n1.Cl |  |  |  | 1.75 |  |
| COc1ccc(N(CCN2CCC(N3CCCC3)CC2)S(=O)(=O)c2ccc3c(c2)c2ccccc2n3C)c(OC)n1.Cl |  |  |  | > 30 |  |
| COc1ccc(/C=C\c2cc(OC)c(OC)c(OC)c2)cc1OP(=O)(O)O [FOSBRETABULIN DISODIUM] | 11 | 2 | 40 |  | inhibition in vivo at 50 mg/kg (HepG2 [13]): 45.8% |
| COc1ccc(N(CCN(C)C)S(=O)(=O)c2ccc3c(c2)c2ccccc2n3C)c(OC)n1.Cl |  |  |  | 29.1 |  |
| COc1ccc(N(CCN2CCN(C)CC2)S(=O)(=O)c2ccc3c(c2)c2ccccc2n3C)c(OC)n1.Cl |  |  |  | 25.7 |  |
